Data on one molecule can be found in patent publication EP4692089A1, “NITROGEN-CONTAINING HETEROCYCLIC COMPOUND AS AAK1 INHIBITOR” (Alicorn Pharmaceutical Co., Ltd., priority 2023, dated 2024).

This experiment addresses T1, AAK1 (30-330) protein (Homo sapiens, UniProt Q2M2I8).
T1 construct: (His)6x (N); TEV protease cleavage site (N); made in house; host or cells: Escherichia coli BL21(DE3)
The experiment is described as follows: CETSA test of binding ability to AAK1 protein (Western blot). Here is the method: Experimental objective: To detect the binding ability of compounds to AAK1 protein by means of a CETSA experiment.
Background principle: The CETSA experiment is a molecular detection means for measuring the affinity between drugs and target proteins. […] When a candidate drug is co-incubated with a target protein, if the candidate drug is an inhibitor of AAK1, it can bind to AAK1. […] On the contrary, the stability of the AAK1 protein after heating will be poorer, and the amount of the detected protein will be lower. In this way, the binding ability of the drug to the target protein can be evaluated, which is used for the screening of AAK1 protein inhibitors.
Expression of AAK1 (30-330) protein: The AAK1 sequence (residues 30-330) was cloned into the pET24N vector with an N-terminal (His)6x tag and a tobacco etch virus (TEV) protease cleavage site. The constructed vector was transformed into Escherichia coli BL21(DE3). When the bacteria were cultured with shaking to reach an OD value of 0.6, 1 mM IPTG was added. […] The bacterial cells were collected and subjected to ultrasonic disruption. The supernatant was obtained by centrifugation, and the protein was purified using Ni-NTA. After dialysis, the concentration and purity of the protein were determined.
CETSA sample preparation: Samples were incubated with candidate drugs, control drugs, and control reagents separately for 30 minutes. Each group of samples was heated at approximately 10 pre-set temperature points. After being returned to room temperature, the samples were centrifuged at 20000 g, and the supernatants were collected. Protein samples were denatured by heating at 100°C for 10 minutes with a sample buffer. After the samples were returned to room temperature, Western blot detection was performed on them; the protein loading amount was controlled at 20 µg. […] The same operations were followed, and Western blot detection was conducted. Protein electrophoresis: The voltage for the stacking gel was set at 60 V, and that for the separating gel was set at 120 V. After electrophoresis, electrotransfer was initiated. Electrotransfer conditions were set at 250 mA for 2 h. Blocking with 5% BSA was performed for 1 h. A specific primary antibody was added, and incubation was carried out overnight at 4°C on a shaker. Washing with TBST was conducted 4 times, with 2.5 minutes each time. A secondary antibody was incubated on a shaker at room temperature for 1 h. Washing with TBST was conducted 4 times, with 2.5 minutes each time. ECL was used for development to detect the expression levels of AAK1 protein in different groups and at each temperature point. Western blot bands were processed and converted using Image J and GraphPad software to calculate EC50.
(In general: In western blotting, separated proteins are transferred to a membrane and probed.)

T1 sequence (Q2M2I8 30-330): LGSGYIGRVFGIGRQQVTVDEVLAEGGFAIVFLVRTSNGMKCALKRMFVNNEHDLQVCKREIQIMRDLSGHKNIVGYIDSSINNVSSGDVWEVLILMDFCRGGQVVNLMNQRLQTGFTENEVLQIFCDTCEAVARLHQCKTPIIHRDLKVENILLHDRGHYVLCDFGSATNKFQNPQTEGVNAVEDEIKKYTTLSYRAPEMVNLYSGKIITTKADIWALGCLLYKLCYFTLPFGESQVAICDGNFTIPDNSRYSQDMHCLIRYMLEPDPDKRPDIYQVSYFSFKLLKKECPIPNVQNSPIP

The EC50 is the concentration giving half of the maximal effect. Low values mean a more potent agent, high ones a less potent agent. `CC(C)C[C@](C)(N)COc1ccc(-c2c[nH]c3ncc(F)cc23)nc1C(F)F` [Compound 26, (S)-1-{[2-(difluoromethyl)-6-(5-fluoro-1H-pyrrolo[2,3-b]pyridin-3-yl)pyridin-3-yl]oxy}-2,4-dimethylpentan-2-amine]: the EC50 lay in the range of 10 to 100 nM.
